Test results reported in ChEMBL document CHEMBL1201862, “PubChem BioAssay data set” (2004).
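All cell lines were grown in 96-well plates and treated with compound for 48 hours. GI50 marks 50% less growth.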 Calls of active or inactive are those of the source. No stated cut-off is given here; in the data, active = GI50 up to about 1.1 µM and inactive = higher.

How the values were obtained:
Experiment in all cases: NCI tumour cell line growth inhibition, 48 h
[1] = system: DLD-1
[2] = system: KM-20L2
[3] = system: HOP-18
[4] = system: LXFL 529
[5] = system: SNB-78
[6] = system: DMS-114
[7] = system: XF498
[8] = system: DMS-273
[9] = system: RXF 631

Compound	GI50 [1]	GI50 [2]	GI50 [3]	GI50 [4]	GI50 [5]	GI50 [6]	GI50 [7]	GI50 [8]	GI50 [9]
Nc1ccccc1C(=O)NC(=O)Nc1ccc(Oc2ncc(Br)cn2)c(Cl)c1	< 0.01 µM (active)	< 0.01 µM (active)	13 µM (inactive)	< 0.01 µM (active)	< 0.12 µM (active)	< 0.01 µM (active)			
C=C(C)CC(C(=O)O)c1ccc(C)cc1 (configuration not stated)	> 100 µM (inactive)	> 100 µM (inactive)	> 100 µM (inactive)		> 100 µM (inactive)	> 100 µM (inactive)	> 100 µM (inactive)	> 100 µM (inactive)	
OCCCCCNc1ccnc2cc(Cl)ccc12	> 100 µM (inactive)	> 100 µM (inactive)	> 100 µM (inactive)	> 100 µM (inactive)	> 100 µM (inactive)	36.7 µM (inactive)	> 100 µM (inactive)	> 100 µM (inactive)	
COc1cc(Nc2nc3cc(C(F)(F)F)ccc3nc2-c2ccccc2)cc(OC)c1OC	> 100 µM (inactive)			> 100 µM (inactive)	46.2 µM (inactive)	> 100 µM (inactive)	32.5 µM (inactive)	22.8 µM (inactive)	61.8 µM (inactive)
NC(=O)/N=C1\NC(Cc2ccccc2)C(=O)N1Cc1ccccc1 (configuration not stated)	> 100 µM (inactive)	> 100 µM (inactive)		> 100 µM (inactive)	> 100 µM (inactive)	> 100 µM (inactive)	35.6 µM (inactive)	> 100 µM (inactive)	
C#CCN(N=O)C(=O)NC(CCCNC(=O)OCc1ccccc1)C(=O)OCc1ccccc1 (configuration not stated)	57.1 µM (inactive)	> 100 µM (inactive)		72.9 µM (inactive)	> 100 µM (inactive)	67.3 µM (inactive)	18 µM (inactive)	> 100 µM (inactive)	
CCN1C(=O)/C(=C\c2coc3ccccc3c2=O)SC1=S	> 100 µM (inactive)	> 100 µM (inactive)	80.4 µM (inactive)	> 100 µM (inactive)	56.8 µM (inactive)	> 100 µM (inactive)	40 µM (inactive)	59 µM (inactive)	
Cc1c2ncccc2c(C)c2c1[nH]c1ccccc12	10.1 µM (inactive)	7.11 µM (inactive)	14.2 µM (inactive)	11 µM (inactive)	14.6 µM (inactive)		12.8 µM (inactive)	4.84 µM (inactive)	
CSC1CC2C(CC1(C)SC)C2(C)C (configuration not stated)	58.1 µM (inactive)			> 100 µM (inactive)	74.3 µM (inactive)		19.7 µM (inactive)	45.4 µM (inactive)	
CS(=O)(=O)c1cc(=O)c2ccccc2s1	1.91 µM (inactive)	11.7 µM (inactive)	3.85 µM (inactive)	1.63 µM (inactive)	4.99 µM (inactive)	4.82 µM (inactive)	2.14 µM (inactive)	8.77 µM (inactive)	11 µM (inactive)
S=C1OC2CCCC[C@H]2O1 (some centres not stated)	> 100 µM (inactive)	> 100 µM (inactive)	> 100 µM (inactive)	> 100 µM (inactive)	> 100 µM (inactive)	> 100 µM (inactive)	> 100 µM (inactive)	> 100 µM (inactive)	> 100 µM (inactive)
COc1cc(-c2cc(=O)c3cc(C)c(C)c(C(=O)O)c3o2)cc(OC)c1OC	> 100 µM (inactive)	> 100 µM (inactive)		> 100 µM (inactive)	> 100 µM (inactive)	> 100 µM (inactive)	> 100 µM (inactive)	> 100 µM (inactive)	> 100 µM (inactive)
O=C(c1ccccc1)c1nnc(C(=O)c2ccccc2)nn1	> 344 µM (inactive)	> 344 µM (inactive)	> 344 µM (inactive)	266 µM (inactive)	170 µM (inactive)			> 344 µM (inactive)	
CN(C)CC1CCCC/C1=N/OC(=O)c1ccc(Cl)c(Cl)c1 (configuration not stated)	> 100 µM (inactive)	> 100 µM (inactive)	> 100 µM (inactive)	> 100 µM (inactive)		> 100 µM (inactive)		> 100 µM (inactive)	> 100 µM (inactive)
CNC(=O)NC(CCCCNC(=O)OCc1ccccc1)C(=O)OCc1ccccc1 (configuration not stated)	> 100 µM (inactive)	> 100 µM (inactive)		33.9 µM (inactive)	33.4 µM (inactive)	28.1 µM (inactive)	15.2 µM (inactive)	35.9 µM (inactive)	
COc1ccc(/C(=C/n2ccnc2)C(O)c2ccc(OC)c(OC)c2)cc1OC (configuration not stated)	> 100 µM (inactive)	> 100 µM (inactive)	> 100 µM (inactive)					> 100 µM (inactive)	
CC1=NC(C(C)C)C(=O)O1 (configuration not stated)	56.2 µM (inactive)	> 100 µM (inactive)	> 100 µM (inactive)	> 100 µM (inactive)	> 100 µM (inactive)	24.6 µM (inactive)	> 100 µM (inactive)	56 µM (inactive)	> 100 µM (inactive)
O=C(O)C(CS)Nc1c2ccccc2[n+]([O-])c2ccccc12 (configuration not stated)	95.9 µM (inactive)	> 100 µM (inactive)	> 100 µM (inactive)	53.7 µM (inactive)	> 100 µM (inactive)	> 100 µM (inactive)		> 100 µM (inactive)	> 100 µM (inactive)
Cc1ccc2ccc(-c3ccccc3)c3c2c1C(=O)c1ccccc1C3=O	> 100 µM (inactive)	> 100 µM (inactive)	54.6 µM (inactive)	> 100 µM (inactive)	> 100 µM (inactive)	> 100 µM (inactive)	15.8 µM (inactive)	53.8 µM (inactive)	
CN1C(c2ccccc2)CC(=O)C(N)C1c1ccccc1 (configuration not stated)	30.2 µM (inactive)	34.8 µM (inactive)	37.4 µM (inactive)	17.6 µM (inactive)	23.7 µM (inactive)		14.7 µM (inactive)	23.4 µM (inactive)	
CCCCCCCCC(=O)CCCCCCCCC(=O)O	20.1 µM (inactive)	25.9 µM (inactive)	19.2 µM (inactive)	27 µM (inactive)	> 100 µM (inactive)	23 µM (inactive)	34.2 µM (inactive)	25.3 µM (inactive)	21 µM (inactive)
COC1CCCc2c(OC(C)=O)ccc(OC(C)=O)c21 (configuration not stated)		> 100 µM (inactive)		> 100 µM (inactive)	36 µM (inactive)	> 100 µM (inactive)			
CCCCCCCC/C=C1\CCC(CN(C)C)C1=O (configuration not stated)	2.16 µM (inactive)	7.6 µM (inactive)	19.5 µM (inactive)	1.61 µM (inactive)	7.45 µM (inactive)	4.01 µM (inactive)	6.22 µM (inactive)	2.43 µM (inactive)	5.64 µM (inactive)
O=S(O)CCCCSSCc1ccccc1CSSCCCCS(=O)O	24.6 µM (inactive)	61 µM (inactive)	14.7 µM (inactive)	11.4 µM (inactive)		14.9 µM (inactive)	12 µM (inactive)	21.1 µM (inactive)	23.1 µM (inactive)
O=C1C2C3C=CC(C2C(=O)N1COP(=O)(O)O)C1C2C(=O)N(COP(=O)(O)O)C(=O)C2C31 (configuration not stated)	> 49.2 µM (inactive)	> 100 µM (inactive)	> 100 µM (inactive)	> 100 µM (inactive)	> 100 µM (inactive)	> 41.7 µM (inactive)	> 100 µM (inactive)	> 41.4 µM (inactive)	
C=C[C@@]1(C)CCC2(O)C(CCC3C2(C)CCC[C@@]3(C)COC(=O)CC(=O)OC)C1 (some centres not stated)	17.4 µM (inactive)	18.7 µM (inactive)		17.3 µM (inactive)	26.1 µM (inactive)		21.6 µM (inactive)		19.1 µM (inactive)
COc1ccc(C2Oc3cc(OC)c(O)c(C)c3[C@H]2C)cc1 (some centres not stated)	> 100 µM (inactive)	> 100 µM (inactive)	19 µM (inactive)	71.6 µM (inactive)	> 100 µM (inactive)	58.7 µM (inactive)		73.3 µM (inactive)	
O=C(O)c1ccccc1NS(=O)(=O)c1ccc(Cl)cc1	> 100 µM (inactive)	> 100 µM (inactive)	> 100 µM (inactive)	> 100 µM (inactive)	> 100 µM (inactive)	> 100 µM (inactive)	> 100 µM (inactive)	> 100 µM (inactive)	
C=C1C(=O)O[C@H]2[C@H]1[C@H](OC(=O)/C(C)=C\C)CC(=C)[C@@H]1[C@H](O)[C@H]3O[C@@]3(C)[C@@]12O [EUPATUNDIN]	> 100 µM (inactive)	> 100 µM (inactive)	> 100 µM (inactive)	> 100 µM (inactive)	> 100 µM (inactive)	> 100 µM (inactive)	> 100 µM (inactive)	> 100 µM (inactive)	> 100 µM (inactive)
